# Measurements: article PMC10067601, “Identification of a peptide ligand for human ALDH3A1 through peptide phage display: Prediction and characterization of protein interaction sites and inhibition of ALDH3A1 enzymatic activity” (Frontiers in Molecular Biosciences, 2023)
# Entries after “also recorded” stand apart in the source; their conditions may differ.
# Test system: human recombinant ALDH3A1 (6-His)
# Assay: Phage display panning, Ph.D.-12 random 12-mer library (3 rounds, clones sequenced)
# Assay type: binding
# Settings: for Frequency of appearance: clones out of 33 sequenced after third panning round, 75 μg ALDH3A1 coated, Ph.D.-12 library
# Description: For phage titration, 50 μL of an overnight E. coli ER2738 (host strain) culture were used for the inoculation of 5 mL Luria Broth (LB) which was subsequently cultivated at 37°C (220 rpm). When E. coli ER2738 culture reached an OD600 value of approximately 0.5, 200 μL of the culture were mixed with 10 μL of the phage solution and the mixture was vortexed and incubated for 5 min at room temperature (RT). Subsequently, it was diluted in 3 mL of warm agarose top (0.7% agarose, 0.5% yeast extract, 1% Bacto-Tryptone, 0.5% NaCl, 0.1% MgCl2•H2O) and poured in LB/IPTG/Xgal agar plates (LB agar plates with 0.004% X-gal 0.005% IPTG). Plates were incubated overnight at 37°C.
# The procedure was initiated with the amplification of the phage plaques as described in 2.5 with the exception that after the first centrifugation, 500 μL of the supernatant was transferred into a fresh tube. Then, 200 μL PEG/NaCl were added and the sample was mixed and incubated at RT for 10 min. The sample was subsequently centrifuged at 14,000 rpm, for 10 min at 4°C and the supernatant was removed. After the second round of centrifugation under the same conditions, the remaining supernatant was carefully discarded. Pellet was then re-suspended in 100 μL of iodine buffer (4M NaI, 1 mM EDTA, 10 mM Tris-HCl, pH 8.0) and 250 μL of ethanol were subsequently added. The mixture was incubated at RT for 10 min, centrifuged at 14,000 rpm for 10 min at RT, and the supernatant was discarded. Finally, 70% of pure ethanol was used for DNA wash and the pellet was suspended in 30 μL sterilized ddH2O. Samples were stored at −20°C until needed. Isolated M13 phage ssDNA (∼120 ng) was subjected to agarose gel electrophoresis, and the residual volume of the ssDNA was sent for single extension sequencing from the primer 5′-CCCTCATAGTTAGCGTAACG-3’. Sequencing was conducted by VBC biotech (Vienna, Austria). The resulting sequences were used for the estimation of the respective 12-mer peptides. […]
sequence,measurement,setting,value
"WPTYVSPFRSPP [P1, …, prevailing 12-mer phage display peptide, synthesised by Genecust]",Frequency of appearance,,30 out of 33
same,Frequency of appearance,listed as WPTYVSPFRSPP,30 out of the 33
same,Strength of interaction with recombinant hALDH3A1,inferred from frequency of appearance,strongest and most specific interaction with the recombinant hALDH3A1; also recorded: appeared to bind most efficiently to hALDH3A1
